We go through 8 compounds from US11938138B2, “Methods for improved treatment of cancer” (Washington University, priority 2020, dated 2024).

Where two headings read alike, the source gives them in different places.

Series [1] relates to Advanced solid tumors or NHL. The note with it: cited from earlier work; for DLTs: G3, at 80 mg, 8 patients.
The subject of series [2] is Relapsed/refractory lymphoma. To be noted: cited from earlier work.
A further series concerns K562 cells. Nature of the series: Cell cycle perturbation of K562 cells (DNA content, CD24, annexin V/PI). It is filed as cell-based, human. To be noted: for cells in G1 phase / G1 arrest / G2 arrest: 36 hours of treatment; for cells in G1 phase / G1 arrest: CVT-313 2 μM (p<0.05), lovastatin 12 μM (p<0.01), FIG. 14G; for G2 arrest: one-way ANOVA p<0.01. As to the method:
CD24 surface protein was quantified using monoclonal human antibodies. Cells were spun down at 300 g for 3 minutes and washed twice with 1 mL of Cell Staining Buffer. The cell pellet was then resuspended in 50 μl of Cell Staining Buffer containing 0.2 μg of either CD24-APC or CD24-BV421. The tube was rotated at 4° C. in the dark for 30 minutes. After, cells were washed twice (as before) and finally resuspended in 200 μl of Cell Staining Buffer. Cells were excited with 450/45 and 660/20 lasers (wavelength/filter bandwidth, both in nm). For concomitant analysis of DNA content, we used CD24-APC. Cells were incubated with 10 μg/ml Hoechst 33342 in 5 mL of growth medium for 30 minutes prior to the staining protocol. For simultaneous assessment of apoptosis, cells were stained with CD24-BV421. After the final wash, instead of resuspending in 200 μl of Cell Staining Buffer, cells were washed twice with Annexin V Staining Buffer. Cells were then incubated in 50 μl Annexin V Staining Buffer containing 0.2 μg Annexin V-FITC and 100 μg/ml propidium iodide (PI). The reaction was incubated for 15 minutes at room temperature in the dark. Afterward, we added 150 μl of Annexin V Staining Buffer and proceeded to flow cytometry. All samples were measured on a Beckman-Coulter CytoFLEX S flow cytometer. Cells were excited with 450/45, 525/40, and 610/20 lasers. We collected 10,000 events per sample. The resulting data were processed with FlowJo Software for Mac Version 10.
We perturbed the cell cycle with lovastatin and nocodazole, two drugs classically used to synchronize cells in culture (Jackman and O'Connor, 2001), as well as the cyclin-dependent kinase inhibitors CVT-313 (Brooks et al., 1997) and RO-3306 (Vassilev et al., 2006). All drugs were dissolved in DMSO except nocodazole, which was dissolved in ethanol. […] Media was refreshed every 48 hours. After 36 hours of treatment, we stained for CD24 levels and nuclear DNA content. We gated for live, single cells using the forward scatter (FSC) and side scatter channels (SSC). Univariate cell cycle analysis was performed with FlowJo. We confirmed that all drugs perturbed cell cycle by altering the proportions of cells in either G1 or G2/M phase (FIG. 14G). […] Cultures remained under drug treatment until five days had elapsed, at which point we measured CD24 levels and stained for apoptosis (FIG. 14H). As before, we set gates to exclude debris to quantitate annexin V and PI, and measured CD24 in live cells gated on FSC and SSC. The G2 inhibitors, in particular, had very few cells in the FSC/SSC gate (typically below 5%).
For the analysis of annexin V levels in either JQ1- or DMSO-treated CD24^high and CD24^low cells, we used a three-way ANOVA with treatment, cell state, and day as independent variables. […] Multiple hypothesis correction was performed using Tukey's honestly significant difference. For the cell cycle inhibitor experiment, data were analyzed using a one-way ANOVA with Dunnett's post hoc test using either DMSO or EtOH (for RO-3306) as controls.

For series [3], the system named is Relapsed/refractory leukemia. The note with it: cited from earlier work.
A further series has as its system NMC, CRPC, NSCLC. The note with it: cited from earlier work.
Series [4] deals with Relapsed/refractory lymphoma or multiple myeloma. The note with it: cited from earlier work.
The next series concerns NMC. To be noted: cited from earlier work; for toxicities of interest: 4 patients (case series).
The subject of the next series is Acute leukemia, MDS. The note with it: cited from earlier work; for DLTs: G3.
Another series has as its system BRD4. Briefly: BRD4 CRISPRi of K562 cells. Format: cell-based, human. An excerpt: For CRISPRi, we first made lentivirus expressing dCas9-KRAB (Fulco et al., 2016; Xie et al., 2017) from Addgene plasmid #89567, a gift from Gary Hon, packaged in HEK293T cells along with pMD2.G (Addgene plasmid #12259) and psPAX2 (Addgene plasmid #12260), both gifts from Didier Trono. We cloned a BRD4 guide RNA, selected from the Dolcetto collection (Sanson et al., 2018), into the sgOpti plasmid (Addgene plasmid #85681, a gift from Eric Lander & David Sabatini) using Golden Gate assembly with Esp3I. We used an in-house pipeline to design a non-targeting gRNA sequence, which was cloned into CROP-seq-opti (Lalli et al., 2019). Plasmids were transfected into HEK293T cells using Lipofectamine 2000. Media was collected after 24 and 48 hours, and subsequently concentrated using Lenti-X Concentrator. Viral titers were functionally assed on HEK293T cells using the appropriate antibiotic (blasticidin or puromycin).
Next, we generated a polyclonal pool of dCas9-KRAB-expressing K562 cells. We seeded each well of a 6-well plate with 200,000 cells each containing 2 mL of growth media supplemented with 4 μg/ml polybrene and 1,000,000 infectious lentiviral particles for an estimated multiplicity of infection (MOI) of 5. Plates were centrifuged at 2,000 g for 30 minutes and returned to the incubator. After 48 hours, cells were split to mid-log phase concentration (˜400,000 cells/nil) and selected on blasticidin (10 μg/ml) for 48 hours. We made frozen stocks from these cells.
For the knockdown experiments, cells were thawed and allowed to recover for 4 days. We confirmed that the proportions of CD24^high/CD24^low was approximately equal at this point. We then seeded 200,000 cells into each well of a 6-well plate. Three wells received the BRD4 gRNA lentivirus, while the other three received the non-targeting gRNA lentivirus, at MOI 2.5. We followed the same transduction protocol described above. After 48 hours of incubation, puromycin was added to the medium at a final concentration of 2 μg/ml. After a further 48 hours, cells were passaged 1:1 into 10 cm dishes containing 10 mL of growth medium. […]

Where [5] appears, read: nocodazole 40 ng/μl, RO-3306 4.5 μM.

Turning to `CNC(=O)N1N=C(c2ccc(N3CCN(C)CC3)cc2)c2cc(OC)c(OC)cc2C[C@@H]1C` [BAY1238097], the “Development (as DLTs occurred at subtherapeutic doses of drug)” value in [1] (5-40 mg 2×/week in 21 day cycle) is “halted as”. In addition, in [1] (10 and 40 mg cohorts), the “Recurrent headaches, patients” value is given as “in 50%”. The DLTs entry is “headache,” in [1] (headache), “G3 low back” in series [1] (low back pain) and “G3 vomiting,” in series [1] (vomiting).
For the compound `Cc1noc2c1-c1ccccc1C(c1ccc(Cl)cc1)=N[C@H]2CC(N)=O` [CPI-0610], in series [2] (dose dependent, reversible), the primary toxicity result is “thrombocytopenia;”. In series [2] (number of patients of 44), the “Responses observed: CR” value is listed as 2, the “Responses observed: PR” value is 1, the “Responses observed: SD” value is on record as “PR; 6 SD” and the “Responses observed: with responses not qualifying as PR” value is reported as 5 with. Also, in series [2] (of 44 patients), the “patients with G3 diarrhea” value is listed as 1 patient with and the “patients with G4 thrombocytopenia” value is 1 patient with.
Consider `COc1ccc(CNc2nc(N(CCO)CCO)nc3c2ncn3C(C)C)cc1` [CVT-313], for which the “cells in G1 phase / G1 arrest” value in the series on K562 cells was “significant increase”.
Regarding `Cc1sc2c(c1C)C(c1ccc(Cl)cc1)=N[C@@H](CC(=O)Nc1ccc(O)cc1)c1nnc(C)n1-2` [MK-8628/OTX015], in [3] (number of patients of 36), the “Responses observed: CR” value is on record as 1 CR; 1 CRi; the “Responses observed: CRi (platelets)” value was 1 CR; 1 CRi; the “Responses observed: with disappearance of hypertrophied gums” value is on record as “clearance, 1”. In addition, the MTD in series [3] (q.d.s., 36 patients) is recorded as 120 mg. Also, in [3] (toxicity incidence), the abdominal pain result is “pain (11%),”, the “decreased factor VII” value is on record as “(21%)” and the dysgeusia result is on record as “(11%),”. Further, the “Responses observed: PR” value in the series with NMC, CRPC, NSCLC (number of patients of 47) is 4. Moreover, in the series on NMC, CRPC, NSCLC (number of patients of 47, for 4-8 months), the “Responses observed: SD” value is 5. Also, in the series with NMC, CRPC, NSCLC (toxicity incidence), the G3-4 thrombocytopenia entry is given as “(20%), G3”; the G3 anemia result was “(9%), G3”; the G3 fatigue result is on record as “fatigue (7%)”. Also, the DLTs entry in [4] (G3) is “hyponatremia”. The DLTs result in series [4] (G4, neutropenia) is given as “neutropenia,”. Further, the DLTs result in series [4] (G4, thrombocytopenia) is listed as “thrombocytopenia, G4”. In addition, in [4] (number of patients of 45), the “Responses observed: OR (DLBCL)” value is recorded as 3 OR; the “Responses observed: with improvement of pleural effusion” value was “(DLBCL), 1”; the “Responses observed: with resolution of B symptoms” value is “effusion; 2”; the “Responses observed: with responses not meeting PR criteria” value is recorded as 2 with. The RP2D in series [4] (q.d.s. × 14/21 days, 45 patients) is given as 80 mg. Moreover, in [4] (toxicity incidence), the anemia result is “(91%)”, the diarrhea entry is listed as “(47%),”, the dysgeusia result is “(15%),” and the fatigue result was “(27%),”. Moreover, the toxicities of interest entry in the series with NMC (G2, dysgeusia) is listed as “dysgeusia,”. Also, in the series on NMC (G2, fatigue), the toxicities of interest result is “G2 fatigue”. Besides, the toxicities of interest entry in the series with NMC (G2, hyperglycemia) is “hyperglycemia,”. Moreover, the toxicities of interest entry in the series on NMC (G2, nausea) is “G2 nausea, G2”. The toxicities of interest entry in the series with NMC (G3) is on record as “thrombocytopenia,”. Also, in the series with NMC (number of patients of 4), the “Responses observed: PR” value is on record as 2 and the “Responses observed: SD” value is given as 1. For the same compound, the DLTs result in the series on Acute leukemia, MDS (diarrhea) is given as “diarrhea, G3”. Moreover, the DLTs entry in the series with Acute leukemia, MDS (fatigue) is “fatigue”. In addition, in the series with Acute leukemia, MDS (limited compliance), the diarrhea entry is reported as “(34%),” and the rash result is given as “rash (20%)”. For the same compound, in the series with Acute leukemia, MDS (number of patients of 41), the “Responses observed: CR” value is 2 and the “Responses observed: CRi (platelets) × 2 months” value is 1. In addition, the RP2D in the series with Acute leukemia, MDS (q.d.s. × 14/21 days, 41 patients) is given as 80 mg.
Take `O=C1NC(=NCc2cccs2)S/C1=C\c1ccc2ncccc2c1` [RO-3306]: the G2 arrest result in the series on K562 cells (setting [5]) is on record as “significant G2 arrest”.
For `CC[C@H](C)C(=O)O[C@H]1C[C@@H](C)C=C2C=C[C@H](C)[C@H](CC[C@@H]3C[C@@H](O)CC(=O)O3)[C@H]21` [lovastatin], in the series with K562 cells, the “cells in G1 phase / G1 arrest” value is “significant decrease”.
For the compound `COC(=O)Nc1nc2ccc(C(=O)c3cccs3)cc2[nH]1` [nocodazole], the G2 arrest result in the series with K562 cells (setting [5]) is “significant G2 arrest”. Moreover, the “surviving cells after five days of treatment” value in the series on K562 cells (K562, nocodazole 40 ng/μl, RO-3306 4.5 μM) is on record as “very few surviving cells”.
For the compound “BRD4 gRNA: guide RNA GCGGCTGCCGGCGGTGCCCG for knockdown of BRD4 with CRISPRi (dCas9-KRAB) (listed as DNA, chemistry not given here)”, in the series on BRD4 (imatinib 1 μM, Tukey's HSD p=0.68 (FIG. 14E-14F)), the “sensitization of K562 cells to imatinib” value is “partially phenocopied”. In addition, the “proportion of CD24high cells compared to non-targeting (NT) gRNA” value with BRD4 (nine days after gRNA transduction, Welch's t test p<0.01 (FIG. 6E), not to the same levels as JQ1) is on record as “significant decrease”. The “reduction of BRD4 mRNA levels” value in the series with BRD4 (qRT-PCR (FIG. 14D)) is “less than 50%”.
